{"source": "ChEMBL document CHEMBL1201862", "about": "“PubChem BioAssay data set” (2004)", "key": {"Estrogen receptor": {"target": "T1, Estrogen receptor (Homo sapiens, UniProt P03372)", "T1 sequence (P03372 whole entry)": "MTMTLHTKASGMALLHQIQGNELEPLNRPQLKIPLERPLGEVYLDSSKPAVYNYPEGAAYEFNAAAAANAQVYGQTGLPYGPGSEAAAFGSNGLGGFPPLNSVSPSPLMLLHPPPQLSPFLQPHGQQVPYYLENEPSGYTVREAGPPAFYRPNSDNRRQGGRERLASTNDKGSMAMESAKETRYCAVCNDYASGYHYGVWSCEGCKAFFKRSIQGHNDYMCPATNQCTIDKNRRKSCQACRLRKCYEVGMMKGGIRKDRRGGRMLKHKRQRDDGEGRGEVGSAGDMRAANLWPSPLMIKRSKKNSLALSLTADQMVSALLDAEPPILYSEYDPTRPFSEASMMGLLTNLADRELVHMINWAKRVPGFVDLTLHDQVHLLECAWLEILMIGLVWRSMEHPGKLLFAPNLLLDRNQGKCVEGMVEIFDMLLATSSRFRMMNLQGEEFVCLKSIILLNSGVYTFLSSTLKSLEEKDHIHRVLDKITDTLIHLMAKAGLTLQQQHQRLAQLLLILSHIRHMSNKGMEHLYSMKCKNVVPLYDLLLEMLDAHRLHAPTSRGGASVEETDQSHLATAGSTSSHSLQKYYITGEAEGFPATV"}, "[1]": {"target": "T2, Carboxy-terminal domain RNA polymerase II polypeptide A small phosphatase 1 (Homo sapiens, UniProt Q9GZU7)", "T2 sequence (Q9GZU7 whole entry)": "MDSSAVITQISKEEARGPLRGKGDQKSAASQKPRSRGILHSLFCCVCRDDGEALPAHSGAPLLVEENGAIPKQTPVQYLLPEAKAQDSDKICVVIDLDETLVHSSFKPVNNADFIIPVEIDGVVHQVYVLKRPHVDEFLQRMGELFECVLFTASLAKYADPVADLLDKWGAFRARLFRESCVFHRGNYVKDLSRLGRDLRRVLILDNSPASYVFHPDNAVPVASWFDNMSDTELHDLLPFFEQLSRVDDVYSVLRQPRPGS", "test": "CTDSP1 inhibitors, concentration-response, biochemical, absorbance readout, ultra-high-throughput screen actives (AID 540297)", "assay_type": "functional"}, "Estrogen receptor beta [2]": {"target": "T3, Estrogen receptor beta (Homo sapiens, UniProt Q92731)", "T3 sequence (Q92731 whole entry)": "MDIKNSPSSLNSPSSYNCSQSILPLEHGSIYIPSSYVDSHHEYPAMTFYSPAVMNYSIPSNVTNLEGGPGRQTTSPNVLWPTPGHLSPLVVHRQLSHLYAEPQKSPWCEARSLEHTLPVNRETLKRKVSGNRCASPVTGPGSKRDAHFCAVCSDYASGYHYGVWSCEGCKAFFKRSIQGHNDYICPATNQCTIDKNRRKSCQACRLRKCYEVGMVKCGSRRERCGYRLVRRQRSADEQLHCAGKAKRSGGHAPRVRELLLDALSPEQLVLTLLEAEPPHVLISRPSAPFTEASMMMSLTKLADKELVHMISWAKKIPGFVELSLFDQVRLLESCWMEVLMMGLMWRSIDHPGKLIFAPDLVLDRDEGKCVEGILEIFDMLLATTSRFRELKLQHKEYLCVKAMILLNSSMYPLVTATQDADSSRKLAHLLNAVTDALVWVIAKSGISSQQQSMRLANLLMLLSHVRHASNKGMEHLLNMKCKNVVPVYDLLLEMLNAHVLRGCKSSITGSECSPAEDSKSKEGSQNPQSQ"}, "Estrogen receptor beta [3]": {"target": "T3, Estrogen receptor beta", "test": "blockers of SRC-3 recruitment to ERβ – biochemical, ELISA, streptavidin-HRP readout, orthogonal assay, confirmation (AID 1060)"}, "[4]": {"target": "26S proteasome non-ATPase regulatory subunit 14 (Homo sapiens, UniProt O00487)", "sequence (O00487 whole entry)": "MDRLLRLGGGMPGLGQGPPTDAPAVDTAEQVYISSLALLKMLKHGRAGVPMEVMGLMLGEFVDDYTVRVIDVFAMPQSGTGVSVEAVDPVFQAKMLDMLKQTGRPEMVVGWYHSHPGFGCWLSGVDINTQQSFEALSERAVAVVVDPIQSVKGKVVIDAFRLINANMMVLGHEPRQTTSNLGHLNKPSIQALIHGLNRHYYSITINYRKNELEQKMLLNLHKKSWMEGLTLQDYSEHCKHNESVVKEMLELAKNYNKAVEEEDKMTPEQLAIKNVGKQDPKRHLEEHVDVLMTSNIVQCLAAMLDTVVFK", "test": "inhibition of proteasome subunit RPN11 – biochemical, fluorescence polarization, uHTS hits, confirmation (AID 602368)", "assay_type": "functional"}, "[5]": {"target": "72 kDa type IV collagenase (Homo sapiens, UniProt P08253)", "sequence (P08253 whole entry)": "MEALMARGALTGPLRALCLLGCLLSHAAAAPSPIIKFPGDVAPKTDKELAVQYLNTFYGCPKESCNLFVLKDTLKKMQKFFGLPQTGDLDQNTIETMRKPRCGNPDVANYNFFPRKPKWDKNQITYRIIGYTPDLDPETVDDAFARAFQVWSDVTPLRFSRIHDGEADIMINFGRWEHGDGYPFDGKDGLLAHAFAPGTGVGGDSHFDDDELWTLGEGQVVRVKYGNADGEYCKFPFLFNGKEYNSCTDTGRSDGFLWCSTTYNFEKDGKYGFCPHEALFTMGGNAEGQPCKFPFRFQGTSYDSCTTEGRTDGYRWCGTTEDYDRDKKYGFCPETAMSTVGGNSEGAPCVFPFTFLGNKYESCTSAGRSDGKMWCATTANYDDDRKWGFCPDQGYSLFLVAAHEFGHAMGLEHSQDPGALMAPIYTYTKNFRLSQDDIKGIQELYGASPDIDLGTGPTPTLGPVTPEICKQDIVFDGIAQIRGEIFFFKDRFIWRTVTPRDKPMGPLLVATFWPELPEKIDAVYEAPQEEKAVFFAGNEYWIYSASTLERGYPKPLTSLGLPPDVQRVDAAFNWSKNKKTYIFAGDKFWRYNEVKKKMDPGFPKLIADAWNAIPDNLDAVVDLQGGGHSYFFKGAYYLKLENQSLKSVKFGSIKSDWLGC", "test": "Dose Response validation of uHTS RPN11 inhibitor hits using a MMP-2 Fluorescence assay.", "assay_type": "functional"}, "Caspase-6": {"target": "T4, Caspase-6 (Homo sapiens, UniProt P55212)", "T4 sequence (P55212 whole entry)": "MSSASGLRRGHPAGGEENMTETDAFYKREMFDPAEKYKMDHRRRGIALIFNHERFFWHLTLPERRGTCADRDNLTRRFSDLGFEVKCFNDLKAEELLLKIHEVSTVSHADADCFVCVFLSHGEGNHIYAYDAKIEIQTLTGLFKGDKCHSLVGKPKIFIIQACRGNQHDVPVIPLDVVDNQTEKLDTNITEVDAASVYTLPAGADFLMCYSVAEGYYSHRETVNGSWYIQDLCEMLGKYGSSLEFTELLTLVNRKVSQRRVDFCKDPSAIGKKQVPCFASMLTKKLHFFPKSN", "test": "inhibition of CASP6 peptide cleavage – biochemical, VEID-R110 fluorescence, cherry-pick, dose response (AID 720632)"}, "Prothrombin": {"target": "Prothrombin (Bos taurus, UniProt P00735)", "test": "thrombin protease inhibitors – biochemical, fluorescence polarization, uHTS hits, dose response (AID 602369)", "assay_type": "functional"}, "[6]": {"test": "viability loss in HepG2 hepatoma cells – cell-based, ATP luminescence, cherry-pick, activator set 2, cytotoxicity control, dose response (AID 1053143)", "assay_type": "functional"}, "[7]": {"test": "A Cell Based Secondary Assay To Explore Cytotoxicity of Compounds that Sensitize Mycobacterium Tuberculosis to Beta-Lactam Antibiotics.", "assay_type": "functional"}, "BJ [8]": {"tested_on": "BJ", "test": "cells", "assay_type": "functional, cell-based", "conditions": "Homo sapiens"}, "[9]": {"test": "luciferase reporter signal suppression in cells – H4 neuroglioma cells, luminescence, dose response (AID 1990)", "assay_type": "functional, cell-based"}, "BJ [10]": {"tested_on": "BJ", "test": "BJ-TERT-LT-ST fibroblast viability loss – cell-based, RAS-independent, luminescence, dose response (AID 1935);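 also: BJ fibroblasts immortalized with TERT plus LT and ST oncogenes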", "assay_type": "functional", "conditions": "Homo sapiens"}, "cells [11]": {"test": "cells", "assay_type": "functional, cell-based"}, "BJ [12]": {"tested_on": "BJ", "test": "BJ-TERT fibroblast viability loss – cell-based, RAS-independent, luminescence, dose response (AID 1933)", "assay_type": "functional", "conditions": "Homo sapiens"}, "HEK293": {"tested_on": "HEK293", "test": "EBV LMP1 TES2 canonical NF-kB signalling blockers – cell-based, HEK293, luciferase, cherry-pick, dose response (AID 588343)", "assay_type": "functional", "conditions": "Homo sapiens"}, "[13]": {"test": "DRD fibroblast viability loss – cell-based, non-viral oncogenic, luminescence, dose response (AID 1934)", "assay_type": "functional", "conditions": "Homo sapiens"}, "Nonstructural protein 1": {"target": "Nonstructural protein 1 (Influenza A virus, UniProt Q194T2)", "sequence (Q194T2 whole entry)": "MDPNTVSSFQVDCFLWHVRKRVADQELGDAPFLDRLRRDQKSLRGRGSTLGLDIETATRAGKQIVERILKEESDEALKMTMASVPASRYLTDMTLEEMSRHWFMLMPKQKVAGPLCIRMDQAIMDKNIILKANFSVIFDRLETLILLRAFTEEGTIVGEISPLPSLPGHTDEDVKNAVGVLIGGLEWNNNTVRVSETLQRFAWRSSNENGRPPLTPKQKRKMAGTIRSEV", "assay_type": "functional, Influenza A virus (A/California/07/2009(H1N1))"}, "[14]": {"test": "Luminescence Cell-Based Dose Response HTS to Identify Inhibitors of 5'UTR Stem-Loop Driven Prion Protein mRNA Translation in H4 Neuroglioblastoma Cells. [Related pubchem assays: 1827 (Project Summary), 1813 (Primary HTS)]", "assay_type": "functional"}, "cells [15]": {"test": "cells", "assay_type": "functional, cell-based", "remark": "listed apart in the source"}, "[16]": {"target": "Peroxisome proliferator-activated receptor gamma/Nuclear receptor coactivator 2 (Homo sapiens, UniProt P37231)", "test": "(§1) TR-FRET dose response biochemical High Throughput Screening assay for agonists of the steroid receptor coactivator 2 (SRC-2) recruitment by the peroxisome proliferator-activated receptor gamma (PPAR gamma): non-selective agonists. [Related pubchem assays: 1297, 1032 ]", "assay_type": "functional"}, "[17]": {"target": "Peroxisome proliferator-activated receptor gamma/Nuclear receptor coactivator 1 (Homo sapiens, UniProt P37231)", "test": "as §1, with “1 (SRC-1)” for “2 (SRC-2)”, “assays (depositor defined):AID1300, AID1808, AID504735, AID631]” for “assays: 1297, 1032 ]”", "assay_type": "protein assay"}, "[18]": {"target": "Peroxisome proliferator-activated receptor gamma/Nuclear receptor coactivator 3 (Homo sapiens, UniProt P37231)", "sequence (P37231 whole entry)": "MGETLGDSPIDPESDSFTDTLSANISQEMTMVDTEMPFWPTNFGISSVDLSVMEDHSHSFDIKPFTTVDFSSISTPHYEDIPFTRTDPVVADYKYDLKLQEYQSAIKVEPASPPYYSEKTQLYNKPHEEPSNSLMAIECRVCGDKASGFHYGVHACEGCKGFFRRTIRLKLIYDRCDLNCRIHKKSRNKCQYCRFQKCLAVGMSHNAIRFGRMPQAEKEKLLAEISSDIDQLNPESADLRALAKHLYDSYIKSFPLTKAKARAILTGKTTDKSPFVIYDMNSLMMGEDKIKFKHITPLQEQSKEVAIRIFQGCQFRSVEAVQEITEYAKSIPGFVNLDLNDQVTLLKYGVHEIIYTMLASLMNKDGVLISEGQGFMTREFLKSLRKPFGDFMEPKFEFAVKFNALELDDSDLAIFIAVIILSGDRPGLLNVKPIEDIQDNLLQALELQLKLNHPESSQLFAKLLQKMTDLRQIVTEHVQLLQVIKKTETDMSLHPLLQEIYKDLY", "sequence (Q9Y6Q9 whole entry, further chain)": "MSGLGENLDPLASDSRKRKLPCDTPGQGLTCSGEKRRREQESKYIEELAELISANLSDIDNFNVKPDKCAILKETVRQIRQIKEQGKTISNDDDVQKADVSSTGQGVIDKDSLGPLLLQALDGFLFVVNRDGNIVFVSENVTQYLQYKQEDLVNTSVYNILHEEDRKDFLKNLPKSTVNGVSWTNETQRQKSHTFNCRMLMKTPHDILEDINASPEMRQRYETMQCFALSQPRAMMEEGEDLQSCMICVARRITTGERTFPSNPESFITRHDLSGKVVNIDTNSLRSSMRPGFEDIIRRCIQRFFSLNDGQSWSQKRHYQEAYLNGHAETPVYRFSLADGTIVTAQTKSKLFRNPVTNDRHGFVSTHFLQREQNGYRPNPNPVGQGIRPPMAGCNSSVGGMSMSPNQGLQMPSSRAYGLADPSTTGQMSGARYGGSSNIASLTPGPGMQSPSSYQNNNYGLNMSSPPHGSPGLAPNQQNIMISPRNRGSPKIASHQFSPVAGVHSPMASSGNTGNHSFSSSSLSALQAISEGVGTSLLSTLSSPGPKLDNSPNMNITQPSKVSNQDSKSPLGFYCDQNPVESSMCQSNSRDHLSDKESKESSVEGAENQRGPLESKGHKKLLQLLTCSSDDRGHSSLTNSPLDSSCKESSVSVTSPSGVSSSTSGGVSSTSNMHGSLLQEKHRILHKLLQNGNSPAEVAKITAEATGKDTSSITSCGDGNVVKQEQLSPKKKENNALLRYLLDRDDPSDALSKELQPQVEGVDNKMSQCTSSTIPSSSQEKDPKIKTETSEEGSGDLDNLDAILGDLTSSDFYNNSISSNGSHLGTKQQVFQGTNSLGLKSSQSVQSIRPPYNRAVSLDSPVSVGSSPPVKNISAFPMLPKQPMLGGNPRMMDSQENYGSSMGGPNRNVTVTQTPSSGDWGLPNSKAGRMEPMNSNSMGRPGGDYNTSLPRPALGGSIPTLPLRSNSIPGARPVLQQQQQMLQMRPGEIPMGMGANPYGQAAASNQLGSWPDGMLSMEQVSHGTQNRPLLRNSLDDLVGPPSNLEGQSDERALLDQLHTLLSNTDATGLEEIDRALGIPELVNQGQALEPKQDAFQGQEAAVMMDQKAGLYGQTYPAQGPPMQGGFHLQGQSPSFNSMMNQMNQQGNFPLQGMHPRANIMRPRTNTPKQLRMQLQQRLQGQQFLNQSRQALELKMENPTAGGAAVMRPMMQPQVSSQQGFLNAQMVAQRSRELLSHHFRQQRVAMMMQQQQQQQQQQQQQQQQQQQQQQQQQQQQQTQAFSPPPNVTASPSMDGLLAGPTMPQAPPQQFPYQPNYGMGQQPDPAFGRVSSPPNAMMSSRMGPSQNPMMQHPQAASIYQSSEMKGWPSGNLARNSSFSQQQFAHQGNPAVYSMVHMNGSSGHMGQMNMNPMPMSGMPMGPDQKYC", "test": "as §1, with “3 (SRC-3)” for “2 (SRC-2)”, “1301 (Confirmation screen.), 1048 (Primary screen.)]” for “1297, 1032 ]”", "assay_type": "functional"}, "[19]": {"test": "A cytotoxicity screen of small molecule inhibitors of the PhoP region in Salmonella typhi identified in the primary screen. [Related pubchem assays: 1850, 1864, 1985 ]", "assay_type": "functional"}, "[20]": {"test": "Trypanosoma cruzi growth suppression in host cells – NIH3T3 host cells, beta-gal luminescence, confirmation (AID 2044)", "assay_type": "functional, cell-based"}, "[21]": {"target": "T5, Microphthalmia-associated transcription factor (Homo sapiens, UniProt O75030)", "T5 sequence (O75030 whole entry)": "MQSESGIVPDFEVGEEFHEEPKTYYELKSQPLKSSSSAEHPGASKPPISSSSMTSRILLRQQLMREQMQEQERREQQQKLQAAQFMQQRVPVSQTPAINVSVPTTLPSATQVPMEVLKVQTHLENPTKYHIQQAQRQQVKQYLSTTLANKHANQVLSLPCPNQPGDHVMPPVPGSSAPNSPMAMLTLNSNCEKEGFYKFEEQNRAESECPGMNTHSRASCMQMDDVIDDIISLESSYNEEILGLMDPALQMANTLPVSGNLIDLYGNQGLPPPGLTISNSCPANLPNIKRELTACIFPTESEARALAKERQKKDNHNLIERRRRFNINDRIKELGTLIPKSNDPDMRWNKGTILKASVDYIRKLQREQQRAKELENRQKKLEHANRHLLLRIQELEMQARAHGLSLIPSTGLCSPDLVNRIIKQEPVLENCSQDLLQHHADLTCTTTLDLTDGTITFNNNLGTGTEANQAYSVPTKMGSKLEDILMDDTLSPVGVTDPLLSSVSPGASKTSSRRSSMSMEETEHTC", "test": "reducers of TRPM1 reporter luminescence, concentration series – cell-based, SK-MEL-5, cherry-picked, set 3, MITF inhibitor project, dose response (AID 493073)", "assay_type": "functional"}, "[22]": {"test": "NIH3T3 cell viability loss – ATP luminescence, mouse fibroblasts, counter-screen, dose response (AID 2010)", "assay_type": "functional, cell-based"}, "cells [23]": {"test": "cells"}, "Streptococcus": {"tested_on": "Streptococcus", "test": "GAS UMAA2166 growth inhibition – luminescence, BacTiterGlo, counter-screen for streptokinase expression inhibitor project, dose response (AID 1915)", "assay_type": "functional, organism-based"}, "[24]": {"tested_on": "Streptococcus sp. 'group A'", "test": "Streptococcus pyogenes SK(-)GAS viability under kanamycin – luminescence, BacTiterGlo, confirmation, counter-screen for streptokinase expression inhibitor project, dose response (AID 1900)", "assay_type": "functional, organism-based"}}, "note": "Activity calls are given as the source filed them."}
{"smiles": "O=C(c1cc2ncc(Br)cn2n1)N1CCN(C(=O)c2ccco2)CC1", "values": [{"measurement": "IC50", "setting": "Estrogen receptor", "value": "17.9 µM (active)"}, {"measurement": "IC50", "setting": "[1]", "value": "16.5 µM (active)"}, {"measurement": "IC50", "setting": "Estrogen receptor beta [2]", "value": "2.73 µM (active)"}, {"measurement": "IC50", "setting": "Estrogen receptor beta [3]", "value": "0.349 µM (not active)"}]}
{"smiles": "Cc1cccc(NC(=O)CNC(=O)CCc2nc3sc4c(c3c(=O)[nH]2)CCCC4)c1C", "values": [{"measurement": "IC50", "setting": "[1]", "value": "2.66 µM (active)"}, {"measurement": "IC50", "setting": "[4]", "value": "7.12 µM (active)"}, {"measurement": "IC50", "setting": "[5]", "value": "> 100 µM (inactive)"}, {"measurement": "AC50", "setting": "Caspase-6", "value": "7.7 µM (active)"}, {"measurement": "IC50", "setting": "Prothrombin", "value": "43.9 µM (active)"}]}
{"smiles": "CCOC(=O)c1ccc2nc(NC(=O)c3ccco3)sc2c1", "values": [{"measurement": "AC50", "setting": "[6]", "value": "26 µM (active)"}]}
{"smiles": "Brc1c(CSc2nc3ccccc3o2)nc2ncccn12", "values": [{"measurement": "AC50", "setting": "[6]", "value": "> 52 µM (inactive)"}]}
{"smiles": "Cn1c(/C=N/c2nc3ccccc3[nH]2)nc2ccccc21", "values": [{"measurement": "CC50", "setting": "[7]", "value": "37.4 µM (active)"}]}
{"smiles": "C(=N\\Nc1nc2ccccc2[nH]1)/c1cccc2cccnc12", "values": [{"measurement": "EC50", "setting": "BJ [8]", "value": "3.01 µM (active)"}, {"measurement": "EC50", "setting": "[9]", "value": "5.09 µM (active)"}, {"measurement": "EC50", "setting": "BJ [10]", "value": "3.36 µM (active)"}, {"measurement": "AC50", "setting": "[6]", "value": "26 µM (active)"}, {"measurement": "EC50", "setting": "cells [11]", "value": "97.6 µM (active)"}, {"measurement": "EC50", "setting": "BJ [12]", "value": "1.53 µM (active)"}, {"measurement": "AC50", "setting": "HEK293", "value": "2.96 µM (active)"}, {"measurement": "EC50", "setting": "[13]", "value": "2.33 µM (active)"}, {"measurement": "IC50", "setting": "Nonstructural protein 1", "value": "13.4 µM (active)"}, {"measurement": "EC50", "setting": "[14]", "value": "> 120 µM (not active)"}, {"measurement": "EC50", "setting": "cells [15]", "value": "66.2 µM (active)"}]}
{"smiles": "C=CCn1c(NC(C)c2cc(Cl)ccc2O)nc2ccccc21", "note": "(centres undefined)", "values": [{"measurement": "EC50", "setting": "[16]", "value": "> 79.4 µM (not active)"}, {"measurement": "EC50", "setting": "[17]", "value": "> 79.4 µM (inactive)"}, {"measurement": "EC50", "setting": "[18]", "value": "13.3 µM (not active)"}, {"measurement": "EC50", "setting": "[19]", "value": "> 50 µM (active)"}]}
{"smiles": "Clc1ccc(-c2c[n+](Cc3cccc(Cl)c3)c3n2CCC3)cc1", "values": [{"measurement": "EC50", "setting": "[20]", "value": "< 0.1 µM (active)"}, {"measurement": "AC50", "setting": "[21]", "value": "8.77 µM (active)"}, {"measurement": "EC50", "setting": "[22]", "value": "> 60 µM (not active)"}, {"measurement": "EC50", "setting": "cells [23]", "value": "0.009 µM (active)"}]}
{"smiles": "CNC(=Nc1cc(Cl)ccc1Cl)SC1CC(=O)N(c2ccc(C(=O)OC)cc2)C1=O", "note": "(centres undefined)", "values": [{"measurement": "EC50", "setting": "Streptococcus", "value": "12.5 µM (active)"}, {"measurement": "CC50", "setting": "[7]", "value": "> 40 µM (active)"}, {"measurement": "EC50", "setting": "[24]", "value": "10.3 µM (active)"}]}
